A short description of data set [1]: Calcium sequestration by titration with calcium chloride in presence of sodium oxalate until slight turbidity. It counts as physicochemical. The settings on record: 20° C.; for Calcium sequestration capacity, mg Ca^2+/g mixture: Table 4. The method, then: Salt mixtures of galactaric acid were prepared to the desired composition by mixing sodium galactarate with either sodium borate decahydrate or sodium aluminate to a final weight of 10 grams. In an alternative preparation, galactaric acid was mixed with either sodium borate decahydrate or sodium aluminate. The resulting mixture was dissolved in a stoichiometric solution of sodium hydroxide.
The efficacy of different mixtures of galactaric acid salts and oxyanion salts in sequestering calcium at 20° C. were tested. First, salt mixtures were dissolved in deionized water at 5 g/L. Sodium oxalate stock solution, prepared at 20 g/Land pH 10, was then added to the mixture solution to yield a final concentration of 1 g/L sodium oxalate. The pH was adjusted to 10 for mixtures containing borate as the oxyanion and to 11 for mixtures containing aluminate as the oxyanion with 1M sodium hydroxide or 1M hydrochloric acid. The resulting solutions were aliquoted to 50 mL and slowly titrated with stirring by addition of a 15 g/L anhydrous calcium chloride solution at a rate of 1 mL every 3 minutes until slight turbidity was observed, indicating saturation of calcium by the chelant mixture.
The effect of pH on calcium sequestration by mixtures of galactaric acid salts and oxyanion salts at room temperature was assayed. Mixtures of 70% disodium galactarate and 30% sodium aluminate and 60% disodium galactarate and 40% sodium borate decahydrate were prepared. The resulting mixtures were dissolved in deionized water at 5 g/L and the calcium sequestering capacity was determined, as described above, with the exception that the pH was adjusted to the indicated pH with either 1M sodium hydroxide or 1M hydrochloric acid.
The calcium chelating capacity of a variety of standard compounds and mixtures was determined for 5 g/L solutions dissolved in water, as described above. In all instances the temperature was 20° C. and except where noted, the pH of solution was adjusted to 10 before determination.

Data set [2] in a line: Qualitative solubility of sodium galactarate in water-based solutions. The settings on record: for solubility at 15 min / solubility at 50 min: 20 °C, thermodynamic from solid, 0.5 g in 50 mL, 20 C, stirring; for solubility at 15 min: Solubility after 15 min.; for solubility at 50 min: Solubility after 50 min. The method, then:
To characterize the solubility of sodium galactarate, 0.5M solutions of alkali salts and non-alkali base were prepared in deionized water. To 50 mL of each solution 0.5 g of sodium galactarate, was added at 20° C. with stirring.

Setting [3] is: pH 10, aqueous buffer, 0.5M NH4OH (pH 10).

Structures are written as SMILES. Some results are limits rather than exact numbers.

On to `O.O.O=C([O-])CN(CCN(CC(=O)O)CC(=O)O)CC(=O)[O-].[Na+].[Na+]` [EDTA, Ethylenedinitrilo Tetraacetic Acid Disodium Salt Dihydrate], for which, in data set [1] (pH 10, 5 g/L in water), the “Calcium sequestration capacity, mg Ca^2+/g mixture” value (from here on “Calcium sequestration capacity”) is on record as 104 mg Ca^2+/g mixture.

Consider `O=C([O-])CC[C@@H](C(=O)[O-])N(CC(=O)[O-])CC(=O)[O-].[Na+].[Na+].[Na+].[Na+]` [GLDA, N,N-Dicarboxymethyl glutamic acid tetrasodium salt], for which the “Calcium sequestration capacity” value in data set [1] (pH 10, 5 g/L in water) amounted to 80 mg Ca^2+/g mixture; in data set [1] (pH 11, 5 g/L in water), 132 mg Ca^2+/g mixture.

Consider `O=C([O-])CC(O)(CC(=O)[O-])C(=O)[O-].[Na+].[Na+].[Na+]` [Trisodium citrate, trisodium citrate], for which the “Calcium sequestration capacity” value in data set [1] (pH 10, 5 g/L in water) amounted to 32 mg Ca^2+/g mixture.

The solubility is how much of the substance goes into solution per volume. Read a low solubility as a poorly soluble substance. In the case of `O=C([O-])[C@@H](O)[C@H](O)[C@H](O)[C@@H](O)C(=O)[O-].[Na+].[Na+]` [sodium galactarate], the “Calcium sequestration, mg Ca^2+/g mixture” value in data set [1] (Table 2, no oxyanion salt, pH not stated, 5 g/L, 1 g/L sodium oxalate) is 5 mg Ca^2+/g mixture. Moreover, the “Effect of lithium ions present in solution on dissolution” value in data set [2] (20° C.) is recorded as “accelerated dissolution”. In data set [2] (20° C.), the “Effect of sodium ions in solution (sodium chloride or sodium hydroxide) on dissolution” value is given as “inhibited the dissolution”. Besides, in data set [2] (20° C.), the “Solubility (in words)” value is “soluble in water-based solutions and under basic conditions”. For the same molecule, the solubility at 15 min in data set [2] (aqueous buffer, 0.5M LiCl) was above 10000 µg/mL; in data set [2] (aqueous buffer, 0.5M NaOH), below 10000 µg/mL; in data set [2] (setting [3]) it was below 10000 µg/mL; in data set [2] (saline or isotonic, 0.5M NaCl) it was below 10000 µg/mL; in data set [2] (water, Water) it was below 10000 µg/mL. The solubility at 50 min was above 10000 µg/mL in data set [2] (aqueous buffer, 0.5M LiCl); below 10000 µg/mL in data set [2] (aqueous buffer, 0.5M NaOH); above 10000 µg/mL in data set [2] (setting [3]); below 10000 µg/mL in data set [2] (saline or isotonic, 0.5M NaCl); above 10000 µg/mL in data set [2] (water, Water).
